This is an account of results in patent publication US20050090506A1, “Insecticidal perfluoroalkylthiazole derivatives” (Nippon Soda Co., Ltd., priority 2003, published 2005).

The term melting point denotes the temperature, or range, at which the solid turns liquid.

Take `CCOC(=O)c1sc(NC(=O)c2ccc(C)cc2)nc1C(F)(F)C(F)(F)F` [Compound 2, N-(5-Ethoxycarbonyl-4-pentafluoroethylthiazol-2-yl)-4-methylbenzamide]: the melting point fell in the range of 202 to 203 °C.
For `CCOC(=O)c1sc(NC(=O)c2cc(C(F)(F)F)cc(C(F)(F)F)c2)nc1C(F)(F)C(F)(F)F` [Compound 68, N-(5-Ethoxycarbonyl-4-pentafluoroethylthiazol-2-yl)-3,5-bis-trifluoromethylbenzamide] the value was 154 to 155 °C; for `O=C(Nc1nc(C(F)(F)C(F)(F)F)c(CCl)s1)c1cc(C(F)(F)F)cc(C(F)(F)F)c1` [Compound 47, N-(5-chloromethyl-4-pentafluoroethylthiazol-2-yl)-3,5-bis-trifluoromethylbenzamide], 133 to 134 °C.
